Measured values taken from patent publication US12532889B2, “Herbicidal compositions comprising glufosinate” (BASF SE, priority 2023, dated 2026).
Where “and” joins values, the source holds several entries; their conditions need not be identical. Equal entries are not always repeated.

Key:
Experiment in all cases: Post-emergence application in field trials (Example A)
Format in all cases: in vivo
[1] = tested on: LOLMU (Lolium multiflorum)
Summary of the method: (§1)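 Percent weed damage (0 = none, 100 = complete destruction), scored against untreated controls at the given DAT, is reported for solo and combined applications. Weeds, naturally occurring or seeded on field plots, were treated after emergence. Colby's formula supplied the additive expectation.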

ZEAMX (Zea mays) = tested on: ZEAMX (Zea mays)
Summary of the method: as §1

[2] = tested on: HORVW (Hordeum vulgare (winter barley))
Summary of the method: as §1

[3] = tested on: ECHCG (Echinocloa crus-galli)
Summary of the method: as §1

[4] = tested on: COMDI (Commelina diffusa); settings: Table 5.3; COMDI growth stage 76-77; A-1 25, B-6 252 g ai/ha; 28 DAT; water 300 l/ha
Summary of the method: as §1

CNDSS (Conyza sp.) = settings: Table 1.5; CNDSS growth stage 26-59, height 15-55 cm; A-1 50, B-2 600 g ai/ha; 14 DAT; water 200 l/ha
Summary of the method: as §1

[5] = tested on: SETPA (Setaria palmifolia); settings: Table 5.3; SETPA growth stage 76-77; A-1 25, B-6 252 g ai/ha; 28 DAT; water 300 l/ha
Summary of the method: as §1

[6] = tested on: AMASP (Amaranthus spinosus); settings: Table 5.5; AMASP growth stage 72; A-1 25, B-6 252 g ai/ha; 28 DAT; water 400 l/ha
Summary of the method: as §1

[7] = tested on: AMAPA (Amaranthus palmeri); settings: Table 1.27, AMAPA height 30 cm, 21 DAT, water 200 l/ha
Summary of the method: as §1

BIDPI (Bidens pilosa) = settings: Table 1.14; BIDPI height 20-45 cm; A-1 50, B-2 400 g ai/ha; 21 DAT; water 100 l/ha
Summary of the method: as §1

GALAP (Galium aparine) = settings: Table 3.1; GALAP growth stage 11-16, height 2-20 cm; A-1 18, B-2 500 g ai/ha; 28 DAT; water 100 l/ha
Summary of the method: as §1

[8] = tested on: SETVE (Setaria verticillata); settings: 42 DAT, growth stage 21-23, height 8-16 cm
Summary of the method: as §1

IPOTR (Ipomoea triloba) = settings: 21 DAT
Summary of the method: as §1

[9] = tested on: DIGSA (Digitaria sanguinalis); settings: for % Herbicidal activity: A-1 12.5 g ai/ha, growth stage 22
Summary of the method: as §1

CYNDA (Cynodon dactylon) = settings: A-1 25, B-6 252 g ai/ha, 28 DAT, water 400 l/ha
Summary of the method: as §1

CYPIR (Cyperus iria) = settings: Table 2.1, CYPIR growth stage 13-14, height 3-5 cm, 14 DAT, water 300 l/ha
Summary of the method: as §1

[10] = tested on: PASSC (Paspalum scrobiculatum); settings: Table 5.2, A-1 25, B-6 252 g ai/ha, 21 DAT, water 450 l/ha
Summary of the method: as §1

[11] = tested on: BRAPL (Brachiaria plantaginea); settings: BRAPL growth stage 24, A-1 50, B-2 400 g ai/ha, water 200 l/ha
Summary of the method: as §1

[12] = 42 DAT, A-1 18 g ai/ha, growth stage 15-16, height 27-33 cm
[13] = 7 DAT, A-1 12.5 g ai/ha, growth stage 23-29, height 20-25 cm
[14] = 7 DAT, A-1 18 g ai/ha, growth stage 23-29, height 20-25 cm
[15] = 21 DAT, A-1 12.5 g ai/ha, growth stage 23-29, height 20-25 cm
[16] = 21 DAT, A-1 18 g ai/ha, growth stage 23-29, height 20-25 cm
[17] = 21 DAT, A-1 12.5 g ai/ha, growth stage 23-30, height 15-20 cm
[18] = 21 DAT, A-1 18 g ai/ha, growth stage 23-30, height 15-20 cm

For `CCOC(=O)COc1ccccc1Oc1nc(-n2c(=O)cc(C(F)(F)F)n(C)c2=O)c(F)cc1Cl` [A-1, ethyl 2-[2-[[3-chloro-5-fluoro-6-[3-methyl-2,6-dioxo-4-(trifluoromethyl)pyrimidin-1-yl]-2-pyridyl]oxy]phenoxy]acetate], the “% herbicidal activity” value ([1]; 7 DAT, A-1 12.5 g ai/ha, growth stage 22-25, height 20-25 cm) was 70%, the “% herbicidal activity” value ([1]; 21 DAT, A-1 12.5 g ai/ha, growth stage 22-25, height 20-25 cm) was 70% and the “% herbicidal activity” value ([1]; Table 1.28, LOLMU growth stage 11-23, height 5-10 cm, A-1 25, B-2 400 g ai/ha, 28 DAT, water 200 l/ha) was 43%. For the same molecule, the “% herbicidal activity” value ([1]; Table 6.1, LOLMU growth stage 22-25, height 20-25 cm, A-1 12.5, B-6 252 g ai/ha, 7 DAT, 200 l/ha water) was 40%, the “% herbicidal activity” value ([1]; Table 6.1, LOLMU growth stage 22-25, height 20-25 cm, A-1 18, B-6 252 g ai/ha, 7 DAT, 200 l/ha water) was 50% and the “% herbicidal activity” value (ZEAMX (Zea mays); 7 DAT, A-1 12.5 g ai/ha, growth stage 15-16, height 50-60 cm) was 80%. The “% Herbicidal activity” value (ZEAMX (Zea mays); 21 DAT, A-1 12.5 g ai/ha, growth stage 15-16, height 27-33 cm) was 35%, the “% herbicidal activity” value (ZEAMX (Zea mays); 21 DAT, A-1 12.5 g ai/ha, growth stage 15-16, height 50-60 cm) was 70% and the “% herbicidal activity” value (ZEAMX (Zea mays); 28 DAT, A-1 12.5 g ai/ha, growth stage 15-16, height 50-60 cm) was 50%. For the same molecule, the “% Herbicidal activity” value (ZEAMX (Zea mays); 42 DAT, A-1 12.5 g ai/ha, growth stage 15-16, height 27-33 cm) was 20%, the “% Herbicidal activity” value (ZEAMX (Zea mays); [12]) was 30% and the “% herbicidal activity” value (ZEAMX (Zea mays); [12]) was 20%. The “% herbicidal activity” value (ZEAMX (Zea mays); Table 1.12, ZEAMX volunteer corn, A-1 50, B-2 400 g ai/ha, 21 DAT, water 100 l/ha) was 83%, the “% herbicidal activity” value (ZEAMX (Zea mays); Table 6.1, ZEAMX growth stage 15-16, height 50-60 cm, A-1 18, B-6 252 g ai/ha, 7 DAT, 200 l/ha water) was 85% and the “% Herbicidal activity” value [2, 13] was 60%. The “% herbicidal activity” value [2, 13] was 60%, the “% Herbicidal activity” value [2, 14] was 70% and the “% herbicidal activity” value [2, 14] was 75%. For the same molecule, the “% Herbicidal activity” value [2, 15] was 90% and 60%, the “% herbicidal activity” value [2, 15] was 70% and 60% and the “% Herbicidal activity” value [2, 16] was 70%. For the same molecule, the “% herbicidal activity” value [2, 16] was 70% and 75%, the “% herbicidal activity” value ([2]; Table 6.1, HORVW growth stage 23-29, height 20-25 cm, A-1 12.5, B-6 150 g ai/ha, 7 DAT, 200 l/ha water) was 60% and the “% herbicidal activity” value ([2]; Table 6.1, HORVW growth stage 23-29, height 20-25 cm, A-1 12.5, B-6 252 g ai/ha, 7 DAT, 200 l/ha water) was 60%. The “% herbicidal activity” value ([2]; Table 6.1, HORVW growth stage 23-29, height 20-25 cm, A-1 18, B-6 150 g ai/ha, 7 DAT, 200 l/ha water) was 70%, the “% herbicidal activity” value ([2]; Table 6.1, HORVW growth stage 23-29, height 20-25 cm, A-1 18, B-6 252 g ai/ha, 7 DAT, 200 l/ha water) was 70% and the “% herbicidal activity” value ([3]; 7 DAT, A-1 12.5 g ai/ha, growth stage 23-30, height 15-20 cm) was 20%. For the same molecule, the “% herbicidal activity” value ([3]; 7 DAT, A-1 18 g ai/ha, growth stage 23-30, height 15-20 cm) was 40%, the “% Herbicidal activity” value [3, 17] was 30% and 20% and the “% herbicidal activity” value [3, 17] was 20% and 30%. For the same molecule, the “% Herbicidal activity” value [3, 18] was 30%, the “% herbicidal activity” value [3, 18] was 30% and 40% and the “% Herbicidal activity” value ([3]; 28 DAT, A-1 12.5 g ai/ha, growth stage 23-30, height 15-20 cm) was 20%. For the same molecule, the “% Herbicidal activity” value ([3]; 28 DAT, A-1 18 g ai/ha, growth stage 23-30, height 15-20 cm) was 30%, the “% herbicidal activity” value ([3]; Table 6.1, ECHCG growth stage 23-30, height 15-20 cm, A-1 12.5, B-6 150 g ai/ha, 7 DAT, 200 l/ha water) was 20% and the “% herbicidal activity” value ([3]; Table 6.1, ECHCG growth stage 23-30, height 15-20 cm, A-1 12.5, B-6 252 g ai/ha, 7 DAT, 200 l/ha water) was 20%. The “% herbicidal activity” value ([3]; Table 6.1, ECHCG growth stage 23-30, height 15-20 cm, A-1 18, B-6 150 g ai/ha, 7 DAT, 200 l/ha water) was 30%, the “% herbicidal activity” value ([3]; Table 6.1, ECHCG growth stage 23-30, height 15-20 cm, A-1 18, B-6 252 g ai/ha, 7 DAT, 200 l/ha water) was 40% and the “% herbicidal activity” value [4] was 60%. The “% herbicidal activity” value (CNDSS (Conyza sp.)) was 72%, the “% herbicidal activity” value [5] was 65% and the “% herbicidal activity” value [6] was 84%. For the same molecule, the “% herbicidal activity” value ([7]; A-1 12.5, B-2 400 g ai/ha) was 70%, the “% herbicidal activity” value ([7]; A-1 25, B-2 400 g ai/ha) was 85% and the “% herbicidal activity” value (BIDPI (Bidens pilosa)) was 74%. For the same molecule, the “% herbicidal activity” value (GALAP (Galium aparine)) was 79%, the “% Herbicidal activity” value ([8]; A-1 12.5 g ai/ha) was 60% and the “% herbicidal activity” value ([8]; A-1 18 g ai/ha) was 50%. The “% herbicidal activity” value (IPOTR (Ipomoea triloba); Table 1.11, A-1 25, B-2 400 g ai/ha, water 100 l/ha) was 85%, the “% herbicidal activity” value (IPOTR (Ipomoea triloba); Table 1.16, A-1 25, B-2 400 g ai/ha, water 200 l/ha) was 82% and the “% Herbicidal activity” value ([9]; 7 DAT, height 10-15 cm) was 75%. The “% Herbicidal activity” value ([9]; 21 DAT, height 10-15 cm) was 70%, the “% herbicidal activity” value ([9]; 21 DAT, A-1 18 g ai/ha, growth stage 21-22, height 10-15 cm) was 35% and the “% Herbicidal activity” value ([9]; 41 DAT, height 10-15 cm) was 55%. For the same molecule, the “% Herbicidal activity” value ([9]; 42 DAT, height 10-15 cm) was 55%, the “% herbicidal activity” value ([9]; Table 4.1, DIGSA height 2-8 cm, A-1 12.5, B-2 655 g ai/ha, 21 DAT, water 140 l/ha) was 27% and the “% herbicidal activity” value ([9]; Table 4.1, DIGSA height 2-8 cm, A-1 25, B-2 655 g ai/ha, 21 DAT, water 140 l/ha) was 28%. For the same molecule, the “% herbicidal activity” value ([9]; Table 4.1, DIGSA height 2-8 cm, A-1 50, B-2 655 g ai/ha, 21 DAT, water 140 l/ha) was 55%, the “% herbicidal activity” value ([9]; Table 6.1, DIGSA growth stage 21-22, height 10-15 cm, A-1 18, B-6 252 g ai/ha, 7 DAT, 200 l/ha water) was 40% and the “% herbicidal activity” value (CYNDA (Cynodon dactylon); Table 5.4, CYNDA growth stage 76-77, height 15-16 cm) was 53%. For the same molecule, the “% herbicidal activity” value (CYNDA (Cynodon dactylon); Table 5.5, CYNDA growth stage 72) was 72%, the “% herbicidal activity” value (CYPIR (Cyperus iria); A-1 12.5, B-2 500 g ai/ha) was 30% and the “% herbicidal activity” value (CYPIR (Cyperus iria); A-1 25, B-2 500 g ai/ha) was 60%. For the same molecule, the “% herbicidal activity” value [10] was 22%, the “% herbicidal activity” value ([11]; Table 1.18, 21 DAT) was 42% and the “% herbicidal activity” value ([11]; Table 1.4, 14 DAT) was 85%.
